Legend:
[1] = Neurotoxicity in mouse by rotarod test; type: toxicity; conditions: in vivo
[2] = Protective index, ratio of TD50 for neurotoxicity in mouse to ED50 for anticonvulsant activity in mouse assessed as protection against current-induced seizure; type: toxicity; conditions: in vivo, read-out: PI
[3] = species on record: Mus musculus; assay: Anticonvulsant activity in mouse assessed as protection against current-induced seizure by maximal electroshock seizure test; type: functional
[4] = Neurotoxicity in ip injected albino mouse; type: toxicity, organism-based; conditions: in vivo
[5] = Protective index, ratio of TD50 for neurotoxicity in ip injected albino mouse to ED50 for anticonvulsant activity in ip injected albino mouse assessed as protection against 50 mA current-induced seizure; type: toxicity, organism-based; conditions: in vivo
[6] = tested on: Mus musculus; assay: Anticonvulsant activity in ip injected albino mouse assessed as protection against 50 mA current-induced seizure by maximal electroshock seizure test; type: functional
[7] = species on record: Mus musculus; assay: Anticonvulsant activity in albino mouse assessed as pentylenetetrazole-induced seizure measured after 30 mins; type: functional; conditions: 0.5 h
[8] = species on record: Mus musculus; assay: Anticonvulsant activity in albino mouse assessed as protection against 50 mA current-induced seizure by maximal electroshock seizure test; type: functional
[9] = Neurotoxicity in albino rat at 100 mg/kg, ip after 30 mins (reference value: 2%); type: toxicity, organism-based; conditions: in vivo, 0.5 h
[10] = tested on: Mus musculus; assay: Anticonvulsant activity in albino mouse assessed as protection against 50 mA current-induced seizure at 25 mg/kg by maximal electroshock seizure test relative to control; type: functional
[11] = species on record: Mus musculus; assay: Anticonvulsant activity in KunMing mouse assessed as protection against pentylenetetrazole-induced seizure by maximal electroshock seizure test; type: functional
[12] = Neurotoxicity in KunMing mouse by rotarod test; type: toxicity; conditions: KunMing, in vivo, read-out: TD50
[13] = Protective index, ratio of TD50 for neurotoxicity in KunMing mouse to ED50 for anticonvulsant activity in KunMing mouse assessed as protection against current-induced seizure; type: toxicity; conditions: in vivo, read-out: PI
[14] = Protective index, ratio of TD50 for neurotoxicity in KunMing mouse to ED50 for anticonvulsant activity in KunMing mouse assessed as protection against pentylenetetrazole-induced seizure; type: toxicity; conditions: in vivo, read-out: PI
[15] = species on record: Mus musculus; assay: Anticonvulsant activity in KunMing mouse assessed as protection against current-induced seizure by maximal electroshock seizure test; type: functional
[16] = Lipophilicity, log P of the compound; type: physicochemical; conditions: octanol/water
[17] = tested on: Mus musculus; assay: Anticonvulsant activity in albino mouse assessed as protection against 50 mA current-induced seizure at 200 mg/kg by maximal electroshock seizure test relative to control; type: functional
[18] = species on record: Mus musculus; assay: Anticonvulsant activity in albino mouse assessed as protection against 50 mA current-induced seizure; type: functional; conditions: read-out: PD50
[19] = tested on: Mus musculus; assay: Anticonvulsant activity in albino mouse assessed as protection against 50 mA current-induced seizure at 50 mg/kg by maximal electroshock seizure test relative to control; type: functional
[20] = tested on: Mus musculus; assay: Anticonvulsant activity in albino mouse assessed as protection against 50 mA current-induced seizure at 100 mg/kg by maximal electroshock seizure test relative to control; type: functional
[21] = Protective index, ratio of TD50 for neurotoxicity in ip injected albino mouse to ED50 for anticonvulsant activity in albino mouse assessed as pentylenetetrazole-induced seizure; type: toxicity, organism-based; conditions: in vivo
[22] = tested on: Mus musculus; assay: Anticonvulsant activity in ip injected albino mouse assessed as protection against 50 mA current-induced seizure after 0.5 to 4 hrs interval by maximal electroshock seizure test; type: functional; conditions: time hrs 0.5-4
[23] = species on record: Mus musculus; assay: Anticonvulsant activity in albino mouse assessed as current-induced seizure latency time; type: functional
[24] = species on record: Mus musculus; assay: Anticonvulsant activity in albino mouse assessed as current-induced seizure relative to control; type: functional
[25] = Protective index, ratio of TD50 for neurotoxicity in mouse to ED50 for anticonvulsant activity in mouse assessed as protection against pentylenetetrazole-induced seizure; type: toxicity; conditions: in vivo, read-out: PI
[26] = species on record: Mus musculus; assay: Anticonvulsant activity in albino mouse assessed as pentylenetetrazole-induced seizure; type: functional
[27] = Protective index, ratio of TD50 for neurotoxicity in mouse to ED50 for anticonvulsant activity in mouse assessed as protection against 50 mA current-induced seizure; type: toxicity; conditions: in vivo, read-out: PI
[28] = species on record: Mus musculus; assay: Anticonvulsant activity in KunMing mouse assessed as protection against 50 mA current-induced seizure after 0.5 to 4 hrs by maximal electroshock seizure test; type: functional; conditions: time hrs 0.5-4
[29] = tested on: Mus musculus; assay: Anticonvulsant activity in albino mouse assessed as protection against 50 mA current-induced seizure at 20 mg/kg by maximal electroshock seizure test relative to control; type: functional
[30] = tested on: Mus musculus; assay: Anticonvulsant activity in albino mouse assessed as protection against 50 mA current-induced seizure at 10 mg/kg by maximal electroshock seizure test relative to control; type: functional
[31] = tested on: Mus musculus; assay: Anticonvulsant activity in albino mouse assessed as protection against 50 mA current-induced seizure at 30 mg/kg by maximal electroshock seizure test relative to control; type: functional

## CCCCOc1ccc2c(c1)sc1n[nH]c(=O)n12
[1]
  TD50: > 700 mg/kg
[2]
  selectivity ratio: > 51
[3]
  ED50: 13.6 mg/kg

## Nc1nc(-c2ccccc2)nnc1C(=O)N1CCCC1c1noc2cc(Br)ccc12 (stereo unspecified)
[4]
  TD50: > 100 mg/kg
[5]; read-out: Ratio
  selectivity ratio: > 8.22
[6]
  ED50: 12.2 mg/kg

## Clc1ccc(Oc2cccc3nncn23)cc1
[1]
  TD50: 63.4 mg/kg
[2]
  selectivity ratio: 4.8
[3]
  ED50: 13.2 mg/kg

## Nc1nnc(-c2ccccc2OCc2ccccc2F)o1
[7]
  ED50: 9 mg/kg
[8]
  ED50: 16.2 mg/kg

## CN1C(=O)CN=C(c2ccccc2)c2cc(Cl)ccc21 [DIAZEPAM]
[7]
  ED50: 0.7 mg/kg
[8]
  ED50: 0.8 mg/kg
[9]
  Activity: 88%

## O=C1N=C([O-])NC1(c1ccccc1)c1ccccc1.[Na+] [PHENYTOIN SODIUM]
[10]
  Activity: 100%

## Clc1ccc(C2Cc3nncn3-c3ccsc32)cc1 (stereo unspecified)
[11]
  ED50: 20.5 mg/kg
[12]
  TD50: 456 mg/kg
[13]
  selectivity ratio: 48
[14]
  selectivity ratio: 22.2
[15]
  ED50: 9.5 mg/kg

## COc1ccc(-c2nc(N/N=C/c3ccc(O)cc3)[nH]c(=O)c2C#N)cc1
[16]
  logP: 1.27

## O=C1CN=C2c3ccccc3N=C(COc3ccc(Cl)cc3Cl)N2N1
[17]
  Activity: 90%
[18]
  ED50: 87.5 mg/kg
[19]
  Activity: 60%
[20]
  Activity: 90%

## CN(C)Nc1ccc(/C=N/Nc2nnc(-c3ccccc3)nc2Cc2cccc(Cl)c2)cc1
[4]
  TD50: 435 mg/kg
[7]
  ED50: 92 mg/kg
[5]; read-out: Ratio
  selectivity ratio: 8.01
[21]; read-out: Ratio
  selectivity ratio: 4.73
[22]
  ED50: 54.3 mg/kg

## CCCC(CCC)C(=O)[O-].[Na+] [VALPROATE SODIUM]
[4]
  TD50: 42.6 mg/kg
[22]
  ED50: 272 mg/kg

## COc1ccc(N2C(=S)N=C(c3ccccc3)CC2c2ccccc2)cc1 (stereo unspecified)
[4]
  TD50: 534 mg/kg
[7]
  ED50: 378 mg/kg
[5]; read-out: PI
  selectivity ratio: 31.8
[21]; read-out: PI
  selectivity ratio: 1.4
[22]
  ED50: 16.8 mg/kg

## CN(C)CCOc1ccc2c(c1)/C(=N/NC(N)=O)C(=O)N2
[9]
  Activity: 7%

## CC(=O)Oc1cc2ccccc2cc1-c1nnc(N(CCc2ccccc2)C(C)=O)s1
[23]
  Time: 5.92 min
[24]
  Activity: 90%

## Cc1ccc(NC(=S)N2C(=S)N=C(c3ccccc3)CC2c2ccc(O)cc2)cc1 (stereo unspecified)
[25]
  selectivity ratio: 1.9
[26]
  ED50: 278 mg/kg
[1]
  TD50: 534 mg/kg
[2]
  selectivity ratio: 34.2
[3]
  ED50: 15.6 mg/kg

## Nc1ccc(Cl)cc1-c1n[nH]c(=O)n(-c2ccc(O)cc2)c1=O
[4]
  TD50: 682 mg/kg
[5]; read-out: Ratio
  selectivity ratio: 13.6
[26]
  ED50: 95.3 mg/kg
[21]; read-out: Ratio
  selectivity ratio: 7.15
[6]
  ED50: 51.1 mg/kg

## CN(C)Nc1ccc(/C=N/Nc2nnc(-c3ccccc3)nc2Cc2ccc(Cl)cc2)cc1
[4]
  TD50: 360 mg/kg
[7]
  ED50: 83.9 mg/kg
[5]; read-out: Ratio
  selectivity ratio: 7.82
[21]; read-out: Ratio
  selectivity ratio: 4.29
[22]
  ED50: 46 mg/kg

## O=c1[nH]nc2n1-c1ccc(OCc3ccc(F)cc3)cc1SCC2
[27]
  selectivity ratio: 12.6
[28]
  ED50: 26.3 mg/kg
[1]
  TD50: 331 mg/kg

## CC(=O)Oc1cc2ccccc2cc1-c1nnc(N(C(C)=O)c2cccc(F)c2)s1
[23]
  Time: 4.41 min
[24]
  Activity: 70%

## CCC1(c2ccccc2)C(=O)NC(=O)NC1=O [PHENOBARBITAL]
[29]
  Activity: 60%
[18]
  ED50: 14.4 mg/kg
[28]
  ED50: 21.8 mg/kg
[30]
  Activity: 40%
[3]
  ED50: 21.8 mg/kg
[31]
  Activity: 100%
